# Reference: patent US9017737B2, “Use of cannabinoids in combination with an anti-psychotic medicament” (priority 2008, dated 2015)
# Key:
# rat isolated aortae = experiment: In vitro vascular studies by wire myography; conditions: for Time-dependent relaxation of the rat aorta: 2 h (120 min), pre-contracted aortae
# rat/Wistar [1] = experiment: Aripiprazole-induced catalepsy; assay type: in vivo; conditions: ip, 1 hour after aripiprazole po
# Description: (§1) Animals were subjected to a protocol as illustrated in FIG. 5.
# (§2) Rats were made to fast from 6 PM on the day before the experiment until sacrifice. Rats were weighed and orally (PO) administered aripiprazole. […] For measurement of catalepsy, the observations were performed three times at each observation time point. The animals were forced to hang with their right forepaw on the upper edge of a steel can (diameter: 6 cm, height: 10 cm). When the animals remained in the unnatural vertical position for 30 seconds or longer, they were judged to be positive responders for catalepsy.
# rat/Wistar [2] = experiment: Aripiprazole-induced ptosis; assay type: in vivo; conditions: ip, 1 hour after aripiprazole po
# Description: as §1, §2
# The measurement of ptosis was performed as follows. Each animal was individually taken from the home cage and put on the experimenter's hand to observe the eyes. The ptosis score was determined for both eyes as described below, and the scores for the two eyes were added to obtain the total score (maximum score, 8) • 0: Normal • 1: Mild ptosis (upper eyelid covered ¼ of the eye) • 2: Moderate ptosis (upper eyelid covered ½ of the eye) • 3: Severe ptosis (upper eyelid covered ¾ of the eye) • 4: Complete ptosis (upper eyelid covered the entire eye)
# PPARγ = target: T1, PPARγ (Homo sapiens, UniProt P37231); experiment: Transcriptional transactivation (luciferase reporter gene) assay; assay type: cell-based; conditions: any concentration tested; in words
# T1 construct: expressed in transfected cells
# T1 sequence (P37231 1-505): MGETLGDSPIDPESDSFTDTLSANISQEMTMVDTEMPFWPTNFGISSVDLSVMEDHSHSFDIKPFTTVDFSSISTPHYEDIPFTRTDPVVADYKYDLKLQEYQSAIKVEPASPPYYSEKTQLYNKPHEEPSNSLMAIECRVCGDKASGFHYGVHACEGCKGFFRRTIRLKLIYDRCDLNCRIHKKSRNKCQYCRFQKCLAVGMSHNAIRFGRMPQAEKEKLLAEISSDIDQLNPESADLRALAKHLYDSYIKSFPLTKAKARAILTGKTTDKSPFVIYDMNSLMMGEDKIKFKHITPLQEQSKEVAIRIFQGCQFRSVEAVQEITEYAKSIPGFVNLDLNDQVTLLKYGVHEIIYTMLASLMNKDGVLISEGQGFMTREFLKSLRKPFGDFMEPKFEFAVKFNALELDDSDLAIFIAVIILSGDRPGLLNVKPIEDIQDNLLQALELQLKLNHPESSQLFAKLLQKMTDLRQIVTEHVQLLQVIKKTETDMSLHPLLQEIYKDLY
# T1 sequence (P19793 1-462 partner): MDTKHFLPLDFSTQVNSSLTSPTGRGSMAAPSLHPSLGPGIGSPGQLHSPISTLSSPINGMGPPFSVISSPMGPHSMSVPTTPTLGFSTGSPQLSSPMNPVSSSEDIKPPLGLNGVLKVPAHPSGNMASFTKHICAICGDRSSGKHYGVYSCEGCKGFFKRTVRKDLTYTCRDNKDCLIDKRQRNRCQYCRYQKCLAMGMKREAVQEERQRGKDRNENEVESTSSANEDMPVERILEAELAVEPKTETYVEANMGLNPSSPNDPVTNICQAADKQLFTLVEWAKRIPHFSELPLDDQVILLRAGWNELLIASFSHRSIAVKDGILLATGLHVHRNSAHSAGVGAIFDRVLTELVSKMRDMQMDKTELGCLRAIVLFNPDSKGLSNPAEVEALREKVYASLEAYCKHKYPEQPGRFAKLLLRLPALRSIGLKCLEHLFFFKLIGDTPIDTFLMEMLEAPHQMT
# Description: In vitro vascular studies were carried out in rat isolated aortae by wire myography. PPARγ activation was investigated using reporter gene assays, a PPARγ competition-binding assay and an adipogenesis assay.
# [3] = system: small resistance mesenteric vessels and aorta; experiment: Chronic treatment of rats with CBD: vascular responses in isolated arteries; assay type: in vivo, rat; conditions: animals treated for 2 weeks
# 3T3L1 cells = experiment: Induction of adipocyte differentiation (Oil Red O staining); assay type: cell-based; conditions: treated for 8 days
compound,measurement,setting,value
"COc1ccc(CCN(C)CCCC(C#N)(c2ccc(OC)c(OC)c2)C(C)C)cc1OC (stereo not drawn) [verapamil, reference compound]",Vasorelaxation of pre-constricted vessels,rat isolated aortae; more rapid onset than CBD,significant vasorelaxation
"CCCc1cc(O)c2c(c1)OC(C)(C)[C@@H]1CCC(C)=C[C@@H]21 [THCV, tetrahydrocannabivarin]",Aripiprazole-induced catalepsy in rats,rat/Wistar [1]; 60 mg/kg,significantly decreased
same,Aripiprazole-induced ptosis in rats,rat/Wistar [2]; 60 mg/kg,significantly decreased
same,Time-dependent relaxation of the rat aorta,rat isolated aortae; 10 μM,28.7±4.6 % relaxation
same,Effect on tone in pre-contracted aortae,"rat isolated aortae; 10 μM, in words",no effect on tone until after 105 minutes
same,PPARγ transcriptional activity,PPARγ,no effect
"C=C(C)[C@@H]1CCC(C)=C[C@H]1c1c(O)cc(CCCCC)cc1O [CBD, cannabidiol]",Aripiprazole-induced catalepsy in rats,rat/Wistar [1]; 120 mg/kg,significantly decreased
same,Aripiprazole-induced ptosis in rats,rat/Wistar [2]; 120 mg/kg,significantly decreased
same,Maximal response to methoxamine in the aorta,[3],1.63±0.21 g increase tension
same,Potency of acetylcholine (pEC50) in the aorta,[3],5.37±0.40
same,"Potency of methoxamine (pEC50), small resistance mesenteric vessels",[3],5.79±0.10
same,Time-dependent relaxation of the rat aorta,rat isolated aortae; 10 μM,69.7±4.0 % relaxation
same,Residual relaxation (vasorelaxant effect minus the vasorelaxant effect of vehicle and time),"rat isolated aortae; 10 μM, after 2 h",50.1±3.3 % relaxation
same,Basal tension over time,rat isolated aortae; 2 h,-0.03 ± 0.01 g
same,Time-dependent vascular responses with the CB1 receptor antagonist AM251,rat isolated aortae; AM251 1 μM,did not significantly affect
same,Residual vasorelaxant effect in the presence of the PPARγ receptor antagonist GW9662,"rat isolated aortae; GW9662 1 μM, after 1 h of incubation",significantly reduced
same,Residual vasorelaxant effect in the presence of the nitric oxide synthase inhibitor L-NAME,"rat isolated aortae; L-NAME 300 μM, vs control conditions",not different
same,Vascular response over time after pre-treating arteries with PTX or capsaicin,"rat isolated aortae; PTX 200 ng ml−1, 2 h or capsaicin 10 μM, 1 h",no effect
same,Residual vasorelaxant effects with the CB2 receptor antagonist SR144528,"rat isolated aortae; SR144528 1 μM, between 45 min to 90 min",significantly inhibited
same,Potency and maximal contractile response to the re-introduction of calcium,"rat isolated aortae; calcium free, high potassium Krebs-Hensleit solution, 1 μM to 30 μM, concentration-dependent",significantly reduced
same,Vasorelaxant effect in arteries contracted with a high potassium buffer,rat isolated aortae; compared with control,no difference
same,Vasorelaxant effect in vessels where tone was induced with U46619 in calcium free buffer,rat isolated aortae; compared with control,significantly blunted
same,Vasorelaxant effect in endothelium-denuded and control aortae,rat isolated aortae; endothelium-denuded,similar
same,"Differentiation of 3T3 L1 cells to adipocytes (fat droplet accumulation, Oil Red O)",3T3L1 cells,signs of fat droplet accumulation were apparent at all concentrations tested
